Data on one compound can be found in patent US20250179013A1, “INHIBITORS OF RNA HELICASE DHX9 AND USES THEREOF” (ACCENT THERAPEUTICS, INC., priority 2022, published 2025).

Test [1] concerns DHX9 (circBRIP1 mRNA in HCT116 cells). Put plainly: DHX9 circBRIP1 Cellular Target Engagement TaqMan Multiplex Assay. As to conditions: Homo sapiens, HCT-116, TaqMan Multiplex Assay (footnote *), circBRIP1 qPCR, 72 hours. In kind it is cell-based.
The test system of test [2] is LS411N cells. Nature of the test: DHX9 Cellular Proliferation Assay (CellTiter-Glo), LS411N. In kind it is cell-based. To be noted: Homo sapiens, LS-411N, 120 hours, read-out: LS411N (CRC-MSI-H) Antiproliferative IC50.
Test [3] addresses T1, Human recombinant DHX9 protein (Homo sapiens, UniProt Q08211).
T1 construct: purchased Viva
Put plainly: DHX9 ATPase assay (ADP-Glo biochemical assay).

Test [4] concerns NCI-H747 cells. Put plainly: DHX9 Cellular Proliferation Assay (CellTiter-Glo), NCI-H747. In kind it is cell-based. As to conditions: Homo sapiens, 120 hours, read-out: H747 (CRC-MSS) Antiproliferative IC50.

T1 sequence (Q08211 whole entry): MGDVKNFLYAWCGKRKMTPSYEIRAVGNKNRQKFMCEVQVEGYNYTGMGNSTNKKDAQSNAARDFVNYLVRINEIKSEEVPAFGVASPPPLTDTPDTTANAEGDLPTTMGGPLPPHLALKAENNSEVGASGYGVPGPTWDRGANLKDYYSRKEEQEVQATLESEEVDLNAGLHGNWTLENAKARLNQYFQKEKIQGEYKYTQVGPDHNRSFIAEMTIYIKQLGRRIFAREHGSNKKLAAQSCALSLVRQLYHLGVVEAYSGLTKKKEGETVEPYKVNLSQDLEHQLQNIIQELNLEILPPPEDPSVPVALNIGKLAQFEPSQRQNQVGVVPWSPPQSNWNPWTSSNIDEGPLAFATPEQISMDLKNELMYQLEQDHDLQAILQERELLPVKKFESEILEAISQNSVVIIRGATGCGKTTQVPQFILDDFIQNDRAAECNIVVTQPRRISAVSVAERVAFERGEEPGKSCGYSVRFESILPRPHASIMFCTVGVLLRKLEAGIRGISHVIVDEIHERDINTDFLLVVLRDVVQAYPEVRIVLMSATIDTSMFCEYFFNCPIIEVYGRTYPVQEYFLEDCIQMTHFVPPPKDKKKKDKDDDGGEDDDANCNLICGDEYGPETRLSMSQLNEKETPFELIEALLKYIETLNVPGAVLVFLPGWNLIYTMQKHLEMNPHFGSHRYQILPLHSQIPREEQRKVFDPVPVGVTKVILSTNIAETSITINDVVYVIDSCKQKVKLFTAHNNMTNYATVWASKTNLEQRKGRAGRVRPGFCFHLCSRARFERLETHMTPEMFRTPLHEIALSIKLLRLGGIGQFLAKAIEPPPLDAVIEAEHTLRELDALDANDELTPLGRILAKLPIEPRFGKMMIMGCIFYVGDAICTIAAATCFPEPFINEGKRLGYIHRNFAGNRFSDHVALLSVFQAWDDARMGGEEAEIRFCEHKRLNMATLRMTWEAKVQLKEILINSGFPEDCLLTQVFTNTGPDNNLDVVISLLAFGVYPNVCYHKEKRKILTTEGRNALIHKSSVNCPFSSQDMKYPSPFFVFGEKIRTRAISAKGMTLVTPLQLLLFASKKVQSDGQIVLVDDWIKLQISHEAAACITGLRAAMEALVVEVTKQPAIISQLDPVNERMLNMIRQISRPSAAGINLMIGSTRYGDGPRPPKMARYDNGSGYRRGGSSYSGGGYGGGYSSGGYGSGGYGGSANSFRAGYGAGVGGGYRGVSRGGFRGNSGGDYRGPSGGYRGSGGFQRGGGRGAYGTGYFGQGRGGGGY

In the case of `Cn1cc(C(=O)Nc2cccc(NS(C)(=O)=O)c2)cc1-c1ccc(N2CC(F)(F)C2)cn1` [Example 160, 5-[5-(3,3-difluoroazetidin-1-yl)pyridin-2-yl]-N-(3-methanesulfonamidophenyl)-1-methylpyrrole-3-carboxamide], a half-maximal response in test [1] (EC50) required 1410 nM. Besides, the IC50 is 9450 nM in test [2], 28.4 nM in test [3] (read-out: DHX9 Biochemical Inflection Point) and greater than 10000 nM in test [4]. In test [3] (maximum inhibition in ATPase assay, 10 μM Aurintricarboxylic acid = 100%), the “DHX9 Biochemical Max Inhibition” value stood at 89.6%.
